Counter-ions that a name gives are not always drawn.
How the values were obtained:
[1] = test system: MPTP-lesioned common marmosets; test: locomotor activity in MPTP-lesioned common marmosets; assay type: in vivo, Callithrix jacchus; details: for hyperactivity (3 times normal activity in naive marmosets): alone or combined
Description: All experimental work was carried out in accordance with the Animals (Scientific Procedures Act) 1986, project license nr PPL 70/4986. Administration of MPTP: […] Research Biochemical International, UK) was dissolved in 0.9% sterile saline solution and administered by subcutaneous (sc) injection (Pearce, et al., De Novo Administration of Ropinirole and Bromocriptine Induces Less Dyskinesia than L-DOPA in the MPTP-treated Common Marmoset, Mov Dis, Mar, 13(2), 234-41, (1998)). To induce the full lesion, MPTP (2.0 mg/kg, sc) was administered once daily for 5 consecutive days. During MPTP-treatment and for the following six to eight weeks, animals were hand fed on a marmoset jelly diet until they had recovered sufficiently to feed themselves and their body weights had stabilised. All animals were determined responsive to L-DOPA administration prior to use. Testing commenced only when animals had recovered from the acute effects of MPTP treatment. In this study this was 70 days after commencement for MPTP treatment. Drugs: […] Doses are expressed as mg/kg free base. L-DOPA methyl ester (Sigma, UK) was dissolved in 10% sucrose in given in a volume of 2 ml/kg and administered by oral gavage. Carbidopa (Merck Sharp and Dohme, UK) was suspended in 10% sucrose in given in a volume of 2 ml/kg and administered directly into the mouth of the animal. Domperidone (Sigma, UK) was suspended in 10% sucrose in given in a volume of 2 ml/kg and administered directly into the mouth of the animal. […] Doses of L-DOPA were chosen to reflect a moderate and high dose of L-DOPA (7.5 and 12.5 mg/kg, po respectively). Procedure: […] A modified latin square design was employed with one week wash-out periods between treatments. Animals were assessed for locomotor activity and disability as described below. Assessment of locomotor activity: […] Each cage was equipped with 8 horizontally orientated infrared photocell emitters and their corresponding detectors arranged so as to permit maximum assessment of movement. […] Analysis and Statistics: […]

[2] = test system: MPTP-lesioned common marmosets; test: motor disability rating in MPTP-treated common marmosets; assay type: in vivo, Callithrix jacchus
Description: All experimental work was carried out in accordance with the Animals (Scientific Procedures Act) 1986, project license nr PPL 70/4986. Administration of MPTP: […] Research Biochemical International, UK) was dissolved in 0.9% sterile saline solution and administered by subcutaneous (sc) injection (Pearce, et al., De Novo Administration of Ropinirole and Bromocriptine Induces Less Dyskinesia than L-DOPA in the MPTP-treated Common Marmoset, Mov Dis, Mar, 13(2), 234-41, (1998)). To induce the full lesion, MPTP (2.0 mg/kg, sc) was administered once daily for 5 consecutive days. During MPTP-treatment and for the following six to eight weeks, animals were hand fed on a marmoset jelly diet until they had recovered sufficiently to feed themselves and their body weights had stabilised. All animals were determined responsive to L-DOPA administration prior to use. Testing commenced only when animals had recovered from the acute effects of MPTP treatment. In this study this was 70 days after commencement for MPTP treatment. Drugs: […] Doses are expressed as mg/kg free base. L-DOPA methyl ester (Sigma, UK) was dissolved in 10% sucrose in given in a volume of 2 ml/kg and administered by oral gavage. Carbidopa (Merck Sharp and Dohme, UK) was suspended in 10% sucrose in given in a volume of 2 ml/kg and administered directly into the mouth of the animal. Domperidone (Sigma, UK) was suspended in 10% sucrose in given in a volume of 2 ml/kg and administered directly into the mouth of the animal. […] Doses of L-DOPA were chosen to reflect a moderate and high dose of L-DOPA (7.5 and 12.5 mg/kg, po respectively). Procedure: […] A modified latin square design was employed with one week wash-out periods between treatments. Animals were assessed for locomotor activity and disability as described below. Rating of disability: The animals were monitored through a one-way mirror by experienced observers, blinded to treatment, and rated for the degree of motor dysfunction. […] Analysis and Statistics: […]

[3] = prodrug; WO 2007/023141; cited from earlier work
dopamine D2 receptor = target: T1, dopamine D2 receptor (Rattus norvegicus, UniProt P61169); details: against inhibitory effect of quinpirole on K+-stimulated [3H]dopamine release, rat striatal slices; cited from earlier work
T1 construct: from rat striatal slices; from tissue; host or cells: rat striatal slices

[4] = target: T2, cloned human 5-HT1A receptors (Homo sapiens, UniProt P08908); details: forskolin induced cAMP accumulation; cited from earlier work
T2 construct: expressed in transfected cells
T2 sequence (P08908 1-422): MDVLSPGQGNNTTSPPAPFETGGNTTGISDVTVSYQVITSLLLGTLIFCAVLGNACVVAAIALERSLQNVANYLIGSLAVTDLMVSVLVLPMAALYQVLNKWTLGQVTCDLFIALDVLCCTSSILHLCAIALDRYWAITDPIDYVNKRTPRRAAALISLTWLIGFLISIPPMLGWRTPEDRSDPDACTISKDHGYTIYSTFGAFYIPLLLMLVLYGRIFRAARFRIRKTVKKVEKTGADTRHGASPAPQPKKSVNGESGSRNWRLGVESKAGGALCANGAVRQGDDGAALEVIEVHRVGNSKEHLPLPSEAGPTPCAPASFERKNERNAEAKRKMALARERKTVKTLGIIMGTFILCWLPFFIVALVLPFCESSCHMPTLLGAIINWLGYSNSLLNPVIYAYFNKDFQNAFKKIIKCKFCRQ

[5] = target: T3, cloned human dopamine D2,L receptors (Homo sapiens, UniProt P14416); details: cited from earlier work
T3 construct: expressed in transfected cells

dopamine D2/3 receptor = details: rat striatal slices; cited from earlier work
[6] = target: T4, human recombinant dopamine D3 receptors (Homo sapiens, UniProt P35462); details: cited from earlier work
T4 construct: expressed in transfected cells

[7] = test system: MPTP-lesioned common marmosets; details: po; previous study; cited from earlier work
[8] = SLV308 0.26 mg/kg po, L-DOPA 7.5 and 12.5 mg/kg po
[9] = L-DOPA 7.5 and 12.5 mg/kg po, SLV308 0.26 mg/kg po

T4 sequence (P35462 whole entry): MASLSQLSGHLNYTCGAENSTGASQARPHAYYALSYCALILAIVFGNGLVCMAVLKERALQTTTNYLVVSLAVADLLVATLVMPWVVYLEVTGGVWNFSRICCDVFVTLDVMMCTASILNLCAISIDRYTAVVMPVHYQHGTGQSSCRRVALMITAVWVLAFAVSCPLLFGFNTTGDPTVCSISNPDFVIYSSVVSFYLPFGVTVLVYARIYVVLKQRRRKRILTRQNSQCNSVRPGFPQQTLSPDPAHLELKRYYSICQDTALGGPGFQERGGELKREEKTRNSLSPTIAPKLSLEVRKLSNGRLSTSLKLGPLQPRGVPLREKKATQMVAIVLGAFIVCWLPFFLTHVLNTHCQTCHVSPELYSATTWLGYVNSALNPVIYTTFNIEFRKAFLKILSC
T1 sequence (P61169 whole entry): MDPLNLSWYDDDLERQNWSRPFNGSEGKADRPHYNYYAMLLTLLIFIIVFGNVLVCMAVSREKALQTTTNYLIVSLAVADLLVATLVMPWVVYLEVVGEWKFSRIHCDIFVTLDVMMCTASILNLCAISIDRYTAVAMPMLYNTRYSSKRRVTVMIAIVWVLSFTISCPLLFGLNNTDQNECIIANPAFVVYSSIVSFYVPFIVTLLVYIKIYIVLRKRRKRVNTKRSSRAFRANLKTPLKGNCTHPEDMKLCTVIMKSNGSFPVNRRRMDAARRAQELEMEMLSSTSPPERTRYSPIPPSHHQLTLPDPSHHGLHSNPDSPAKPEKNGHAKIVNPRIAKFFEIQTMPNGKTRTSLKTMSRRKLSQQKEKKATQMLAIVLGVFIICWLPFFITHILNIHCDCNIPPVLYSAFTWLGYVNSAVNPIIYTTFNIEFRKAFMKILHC
T3 sequence (P14416 whole entry): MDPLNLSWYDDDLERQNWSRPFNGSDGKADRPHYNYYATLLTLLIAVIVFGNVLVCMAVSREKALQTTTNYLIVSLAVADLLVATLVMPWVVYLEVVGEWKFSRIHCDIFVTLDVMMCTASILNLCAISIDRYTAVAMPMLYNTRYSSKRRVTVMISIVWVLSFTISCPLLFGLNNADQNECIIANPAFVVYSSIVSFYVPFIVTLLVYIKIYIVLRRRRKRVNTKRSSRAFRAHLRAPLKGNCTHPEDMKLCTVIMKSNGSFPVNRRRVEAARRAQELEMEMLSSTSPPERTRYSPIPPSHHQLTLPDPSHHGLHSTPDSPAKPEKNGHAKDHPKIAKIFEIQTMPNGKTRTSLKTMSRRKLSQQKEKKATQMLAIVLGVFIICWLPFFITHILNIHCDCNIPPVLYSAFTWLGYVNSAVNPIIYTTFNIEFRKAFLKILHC

N[C@@H](Cc1ccc(O)c(O)c1)C(=O)O [L-DOPA, 3,4-dihydroxyphenylalanine]
duration of locomotor activity ([1]; L-DOPA 7.5 and 12.5 mg/kg po): 150 to 240 min
onset of locomotor activity increase ([1]; L-DOPA 7.5 and 12.5 mg/kg po): immediate increase in locomotor activity
time of peak locomotor activity after administration ([1]; L-DOPA 7.5 and 12.5 mg/kg po): 60 to 90 min
hyperactivity (3 times normal activity in naive marmosets) [1, 8]: produced periods of hyperactivity
duration of reversal of disability ([2]; L-DOPA 7.5 mg/kg po): 150 min
duration of reversal of disability ([2]; L-DOPA 12.5 mg/kg po): 180 min
time of peak reversal of disability after administration ([2]; L-DOPA 7.5 and 12.5 mg/kg po): 90 min
MPTP-induced akinesia and disability [2, 9]: reverse
onset of reversal of disability [2, 9]: immediate reversal of disability
disability score at peak reversal ([2]; L-DOPA 7.5 and 12.5 mg/kg po, maximum score 18): 2.5

C[N+]1([O-])CCN(c2cccc3[nH]c(=O)oc23)CC1 [N-oxide of SLV308]
conversion to SLV308 in vivo [3]: rapidly converted to SLV308

CCN(CC)C(=O)N[C@H]1C[C@@H]2c3cccc4[nH]cc(c34)C[C@H]2N(C)C1 [terguride, reference compound]
pA2 (dopamine D2 receptor): 10.3

CN1CCN(c2cccc3[nH]c(=O)oc23)CC1 [SLV308, 7-[4-methyl-1-piperazinyl]-2(3H)-benzoxazolone mono hydrochloride]
pEC50 [4]: 6.3
type of agonism at 5-HT1A [4]: full 5-HT1A receptor agonist
pA2 ([5]; D2,L receptor antagonism): 8.4
efficacy on forskolin stimulated cAMP accumulation ([5]; partial agonist): 50%
effect on forskolin stimulated accumulation of cAMP (dopamine D2/3 receptor): concentration-dependently attenuated
time of peak locomotor activity after treatment ([1]; SLV308 0.26 mg/kg po): 180 min
time to increase of locomotor activity after administration ([1]; SLV308 0.26 mg/kg po): ≤ 30 min
hyperactivity (3 times normal activity in naive marmosets) [1, 8]: hyperactivity was not observed
duration of locomotor activity ([1]; SLV308 0.26 mg/kg po, whole observation period): ≥ 420 min
pA2 (dopamine D2 receptor): 8.5
pA2 ([6]; antagonism of dopamine induction of [35S]GTPγS binding): 9.0
pEC50 ([6]; induction of [35S]GTPγS binding): 9.2
induction of [35S]GTPγS binding ([6]; partial agonist): 67 % that of dopamine
MPTP-induced akinesia and disability [2, 9]: reverse
onset of reversal of disability [2, 9]: reduced disability scores immediately after administration
median duration of activity (reversal of disability) ([2]; SLV308 0.26 mg/kg po alone): 390 min
total disability scores over the 7 hours after administration ([2]; SLV308 0.26 mg/kg po alone or in combination with L-DOPA 7.5 or 12.5 mg/kg, versus vehicle p<0.001): reduced
disability score at maximum improvement ([2]; SLV308 0.26 mg/kg po, maximum score 18): 3
dose of optimal effect on locomotor activity and disability scores [7]: 0.26 mg/kg

Reference: patent publication US7915262B2, “Combination preparations comprising SLV308 and a dopamine agonist” (Solvay Pharmaceuticals B.V., priority 2006, dated 2011)
